Test results reported in paper PMC7614683, “A small molecule PI3Kα activator for cardioprotection and neuroregeneration” (Nature, 2023).
Read-outs that look alike come from different tables or passages of the source.

Assays:
Test in all cases: SelectScreen Z-LYTE kinase activity assay (SI Table 6)
Type in all cases: biochemical
[1] = molecular target: protein kinases of the Z-LYTE panel (Homo sapiens, UniProt Q96SB4)
Protocol: (§1) 133 protein kinases and 7 lipid kinases were counterscreened, with 1938 used at 1 μM, using the Adapta, Lantha and Z-LYTE assays (SelectScreen Kinase Profiling Service; Thermofisher – experimental details of these assays can be found here: https://www.thermofisher.com/uk/en/home/industrial/pharma-biopharma/drug-discovery-development/target-and-lead-identification-and-validation/kinasebiology/kinase-activity-assays.html. The tree represention in KinMap[59] generated courtesy of Cell Signaling Technology, Inc. (www.cellsignal.com). mTORC1 (mTOR/RAPTOR/LST8) protein complex and ATM kinase and substrates were produced as previously described[57],[60]. Screening of 1938 was conducted using SuperSep Phos-Tag 50 μmol/l 100 x 100 x 6.6 mm 17-well (192-18001/199-18011) gels. For ATM assays, 100 nM ATM was incubated for 30 min at 30°C with 5 μM GST-p53 and 1 mM ATP, in the absence or presence of 200 μM 1938 in ATM Kinase Buffer (50 mM HEPES pH 7.5, 100 mM NaCl, 10% glycerol, 2 mM […], 5 mM MgCl2). As a positive control for ATM activation, the same reaction was carried out with 100 nM ATM/5 μM GST-p53/1 mM ATP in the presence of 100 nM Mre11-Rad50-Nbs1 (MRN) complex, a known activator of ATM[61]. For mTORC1 assays, 50 nM mTORC1 complex (mTOR/LST8/RAPTOR) was incubated for 3 h at 30°C with 15 μM 4E-BP1, 10 mM MgCl2 and 250 μM ATP, in the absence or presence of 200 μM 1938. As a ‘positive’ control, a higher concentration (150 nM) of mTORC1 complex (mTOR/LST8/RAPTOR) was incubated for 3 h at 30°C with 15 μM 4E-BP1, 10 mM MgCl2 and 250 μM ATP. Kinase reactions were quenched by addition of SDS-PAGE Loading Buffer (as per manufacturer’s instructions) and freezing at -20°C before being run on the Phos-tag gels at 150 V for 90 min. Gels were then stained using InstantBlue™ Coomassie, and quantified using BioRad Image Lab Software. Kinase assays were carried out in triplicate.

[2] = molecular target: protein kinases of the Z-LYTE panel (Homo sapiens, UniProt P06213)
Protocol: as §1

[3] = molecular target: protein kinases of the Z-LYTE panel (Homo sapiens, UniProt P08922)
protein kinases of the Z-LYTE panel (Homo sapiens, UniProt P08922), sequence (P08922 28-2347): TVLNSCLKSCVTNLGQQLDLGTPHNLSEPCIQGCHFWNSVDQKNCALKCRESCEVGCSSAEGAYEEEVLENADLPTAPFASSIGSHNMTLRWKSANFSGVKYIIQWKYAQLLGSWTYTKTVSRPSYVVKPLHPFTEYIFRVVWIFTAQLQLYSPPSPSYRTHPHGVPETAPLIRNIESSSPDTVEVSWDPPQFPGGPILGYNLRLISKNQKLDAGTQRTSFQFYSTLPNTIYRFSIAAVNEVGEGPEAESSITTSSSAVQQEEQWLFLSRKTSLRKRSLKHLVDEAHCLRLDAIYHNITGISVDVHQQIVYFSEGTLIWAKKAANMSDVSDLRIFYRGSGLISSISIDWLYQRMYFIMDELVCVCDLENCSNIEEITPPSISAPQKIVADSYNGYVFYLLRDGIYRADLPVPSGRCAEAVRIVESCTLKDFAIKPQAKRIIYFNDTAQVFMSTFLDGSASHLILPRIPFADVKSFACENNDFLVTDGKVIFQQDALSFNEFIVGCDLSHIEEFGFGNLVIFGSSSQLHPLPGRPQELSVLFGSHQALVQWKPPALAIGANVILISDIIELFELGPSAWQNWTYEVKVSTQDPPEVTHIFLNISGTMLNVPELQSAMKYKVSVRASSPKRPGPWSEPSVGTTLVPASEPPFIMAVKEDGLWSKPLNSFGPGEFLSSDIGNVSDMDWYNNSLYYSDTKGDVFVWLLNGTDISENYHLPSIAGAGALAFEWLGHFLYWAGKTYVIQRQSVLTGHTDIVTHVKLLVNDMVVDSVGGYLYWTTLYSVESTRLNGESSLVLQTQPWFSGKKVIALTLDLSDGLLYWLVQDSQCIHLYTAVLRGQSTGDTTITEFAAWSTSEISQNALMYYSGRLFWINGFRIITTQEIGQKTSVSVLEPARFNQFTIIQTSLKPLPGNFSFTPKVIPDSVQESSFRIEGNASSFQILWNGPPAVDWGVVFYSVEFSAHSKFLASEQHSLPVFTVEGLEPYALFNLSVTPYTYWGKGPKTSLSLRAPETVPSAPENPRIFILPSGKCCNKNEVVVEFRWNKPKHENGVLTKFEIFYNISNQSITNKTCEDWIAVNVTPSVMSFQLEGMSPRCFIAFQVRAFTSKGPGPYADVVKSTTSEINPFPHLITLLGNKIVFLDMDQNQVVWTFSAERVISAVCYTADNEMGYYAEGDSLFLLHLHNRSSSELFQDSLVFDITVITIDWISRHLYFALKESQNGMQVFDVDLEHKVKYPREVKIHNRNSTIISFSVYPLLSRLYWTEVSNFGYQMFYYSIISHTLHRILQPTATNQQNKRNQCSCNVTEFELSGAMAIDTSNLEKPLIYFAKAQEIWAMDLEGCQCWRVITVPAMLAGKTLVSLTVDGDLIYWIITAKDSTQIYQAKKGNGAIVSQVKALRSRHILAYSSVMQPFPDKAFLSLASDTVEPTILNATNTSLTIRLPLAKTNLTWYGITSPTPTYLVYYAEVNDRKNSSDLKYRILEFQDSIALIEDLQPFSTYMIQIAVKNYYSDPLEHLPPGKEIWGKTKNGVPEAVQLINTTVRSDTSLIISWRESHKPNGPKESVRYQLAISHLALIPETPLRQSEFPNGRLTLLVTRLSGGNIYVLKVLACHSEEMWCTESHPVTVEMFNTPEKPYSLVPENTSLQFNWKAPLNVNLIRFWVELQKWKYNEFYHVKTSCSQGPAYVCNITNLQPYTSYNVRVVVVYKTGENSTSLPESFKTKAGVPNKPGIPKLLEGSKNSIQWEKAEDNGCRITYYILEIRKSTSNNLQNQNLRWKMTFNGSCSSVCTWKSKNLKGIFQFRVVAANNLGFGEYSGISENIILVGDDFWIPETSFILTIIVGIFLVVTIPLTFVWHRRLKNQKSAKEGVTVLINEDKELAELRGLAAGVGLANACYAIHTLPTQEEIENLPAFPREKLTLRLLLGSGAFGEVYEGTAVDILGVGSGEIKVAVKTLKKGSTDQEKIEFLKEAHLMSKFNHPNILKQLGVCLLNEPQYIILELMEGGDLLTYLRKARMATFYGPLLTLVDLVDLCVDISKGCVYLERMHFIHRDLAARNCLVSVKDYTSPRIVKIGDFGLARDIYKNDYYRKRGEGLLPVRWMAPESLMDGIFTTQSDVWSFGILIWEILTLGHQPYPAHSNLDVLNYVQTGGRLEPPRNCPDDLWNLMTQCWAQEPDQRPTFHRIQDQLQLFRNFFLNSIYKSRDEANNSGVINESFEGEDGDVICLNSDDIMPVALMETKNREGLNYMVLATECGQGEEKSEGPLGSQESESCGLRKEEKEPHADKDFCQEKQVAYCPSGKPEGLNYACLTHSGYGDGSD
Protocol: as §1

[4] = molecular target: protein kinases of the Z-LYTE panel (Homo sapiens, UniProt Q96GD4)
protein kinases of the Z-LYTE panel (Homo sapiens, UniProt Q96GD4), sequence (Q96GD4 whole entry): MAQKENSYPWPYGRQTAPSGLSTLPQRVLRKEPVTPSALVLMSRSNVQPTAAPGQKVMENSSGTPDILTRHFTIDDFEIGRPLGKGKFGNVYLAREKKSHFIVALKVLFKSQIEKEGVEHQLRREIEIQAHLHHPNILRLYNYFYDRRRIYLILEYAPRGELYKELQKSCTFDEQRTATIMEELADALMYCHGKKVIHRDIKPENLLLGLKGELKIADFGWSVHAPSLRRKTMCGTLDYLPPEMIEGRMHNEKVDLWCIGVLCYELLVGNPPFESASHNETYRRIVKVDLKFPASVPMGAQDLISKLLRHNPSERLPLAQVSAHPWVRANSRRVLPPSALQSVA
Protocol: as §1

[5] = molecular target: T1, protein kinases of the Z-LYTE panel (Homo sapiens, UniProt P51955)
T1 sequence (P51955 1-445): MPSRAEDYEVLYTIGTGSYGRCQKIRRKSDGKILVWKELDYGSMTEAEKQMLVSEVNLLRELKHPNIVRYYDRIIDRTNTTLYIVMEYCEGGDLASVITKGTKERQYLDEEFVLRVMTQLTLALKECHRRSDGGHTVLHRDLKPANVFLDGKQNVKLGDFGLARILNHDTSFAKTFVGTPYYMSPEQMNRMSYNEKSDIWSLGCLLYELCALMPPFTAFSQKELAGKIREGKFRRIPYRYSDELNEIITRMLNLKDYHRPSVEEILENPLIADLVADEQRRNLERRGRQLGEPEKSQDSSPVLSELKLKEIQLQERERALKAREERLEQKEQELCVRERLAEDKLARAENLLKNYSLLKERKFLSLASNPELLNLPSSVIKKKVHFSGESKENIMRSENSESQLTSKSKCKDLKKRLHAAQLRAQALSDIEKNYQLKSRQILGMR
Protocol: as §1

[6] = molecular target: protein kinases of the Z-LYTE panel (Homo sapiens, UniProt P17252)
Protocol: as §1

[7] = molecular target: protein kinases of the Z-LYTE panel (Homo sapiens, UniProt Q13153)
protein kinases of the Z-LYTE panel (Homo sapiens, UniProt Q13153), sequence (Q13153 whole entry): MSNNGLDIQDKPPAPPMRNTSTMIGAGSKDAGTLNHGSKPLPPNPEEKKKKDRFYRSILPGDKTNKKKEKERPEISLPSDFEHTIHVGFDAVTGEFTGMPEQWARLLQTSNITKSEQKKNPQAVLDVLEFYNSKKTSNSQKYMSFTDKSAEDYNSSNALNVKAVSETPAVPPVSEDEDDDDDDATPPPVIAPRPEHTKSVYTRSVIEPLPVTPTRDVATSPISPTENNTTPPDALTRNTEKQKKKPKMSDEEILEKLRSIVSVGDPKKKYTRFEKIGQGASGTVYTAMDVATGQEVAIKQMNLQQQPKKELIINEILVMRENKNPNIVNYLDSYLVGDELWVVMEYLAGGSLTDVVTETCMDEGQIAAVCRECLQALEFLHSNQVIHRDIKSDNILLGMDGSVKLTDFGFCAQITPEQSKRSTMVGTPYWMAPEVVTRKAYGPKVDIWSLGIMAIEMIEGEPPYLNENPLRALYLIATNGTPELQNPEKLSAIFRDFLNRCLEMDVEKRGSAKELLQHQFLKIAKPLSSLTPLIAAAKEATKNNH
Protocol: as §1

[8] = molecular target: T2, protein kinases of the Z-LYTE panel (Homo sapiens, UniProt Q02156)
T2 sequence (Q02156 1-737): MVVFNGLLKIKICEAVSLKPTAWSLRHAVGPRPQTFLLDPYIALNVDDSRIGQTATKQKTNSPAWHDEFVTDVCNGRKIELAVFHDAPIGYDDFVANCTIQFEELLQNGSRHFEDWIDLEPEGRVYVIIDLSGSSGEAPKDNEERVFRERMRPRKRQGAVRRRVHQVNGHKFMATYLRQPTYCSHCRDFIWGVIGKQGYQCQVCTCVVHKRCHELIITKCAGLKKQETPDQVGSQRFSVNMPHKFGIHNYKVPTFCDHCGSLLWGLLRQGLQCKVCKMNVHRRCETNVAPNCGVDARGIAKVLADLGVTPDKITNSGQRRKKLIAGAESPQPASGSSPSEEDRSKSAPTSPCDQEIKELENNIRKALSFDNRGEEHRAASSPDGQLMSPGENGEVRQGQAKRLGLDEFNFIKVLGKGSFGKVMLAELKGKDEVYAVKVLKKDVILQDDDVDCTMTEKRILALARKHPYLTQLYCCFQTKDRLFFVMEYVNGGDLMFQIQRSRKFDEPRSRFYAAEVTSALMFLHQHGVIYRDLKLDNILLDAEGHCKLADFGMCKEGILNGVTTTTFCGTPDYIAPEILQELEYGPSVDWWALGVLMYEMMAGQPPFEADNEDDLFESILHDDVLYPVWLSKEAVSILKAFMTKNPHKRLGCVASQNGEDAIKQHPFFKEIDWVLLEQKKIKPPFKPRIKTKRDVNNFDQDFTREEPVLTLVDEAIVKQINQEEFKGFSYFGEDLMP
Protocol: as §1

[9] = molecular target: protein kinases of the Z-LYTE panel (Homo sapiens, UniProt Q13554)
protein kinases of the Z-LYTE panel (Homo sapiens, UniProt Q13554), sequence (Q13554 whole entry): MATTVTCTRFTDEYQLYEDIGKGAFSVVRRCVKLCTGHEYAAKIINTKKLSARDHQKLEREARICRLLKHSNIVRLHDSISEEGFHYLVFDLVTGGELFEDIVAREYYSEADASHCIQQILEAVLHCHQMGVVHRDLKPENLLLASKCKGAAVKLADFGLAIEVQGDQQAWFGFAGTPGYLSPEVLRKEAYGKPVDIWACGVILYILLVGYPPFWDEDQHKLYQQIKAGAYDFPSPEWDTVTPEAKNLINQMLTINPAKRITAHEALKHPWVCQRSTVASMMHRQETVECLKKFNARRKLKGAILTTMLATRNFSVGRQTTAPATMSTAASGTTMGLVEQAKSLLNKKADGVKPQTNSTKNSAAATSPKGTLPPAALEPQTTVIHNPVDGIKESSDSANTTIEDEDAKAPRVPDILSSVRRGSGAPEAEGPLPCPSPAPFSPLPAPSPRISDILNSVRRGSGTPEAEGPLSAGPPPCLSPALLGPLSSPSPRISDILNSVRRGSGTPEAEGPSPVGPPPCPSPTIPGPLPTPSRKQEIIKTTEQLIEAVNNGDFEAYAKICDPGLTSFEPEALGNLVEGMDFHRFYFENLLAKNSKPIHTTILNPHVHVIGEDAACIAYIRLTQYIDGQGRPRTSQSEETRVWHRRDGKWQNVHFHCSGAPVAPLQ
Protocol: as §1

`CCN1CCN(c2ccc(Nc3cc(Nc4cccc5c4N(C(C)=O)CC5)ccn3)cc2)CC1` [Compound 1938] gave an inhibition at 1 µM ([1]; read-out: % Inhibition Point 1) of 1.56%, an inhibition at 1 µM ([1]; read-out: % Inhibition Point 2) of 1.35% and an inhibition at 1 µM ([1]; read-out: % Inhibition mean) of 1.46%. For the same compound, the inhibition at 1 µM ([2]; read-out: % Inhibition Point 1) was 6.51%, the inhibition at 1 µM ([2]; read-out: % Inhibition Point 2) was 5% and the inhibition at 1 µM ([2]; read-out: % Inhibition mean) was 5.64%. For the same compound, the inhibition at 1 µM ([3]; read-out: % Inhibition Point 1) was 19%, the inhibition at 1 µM ([3]; read-out: % Inhibition Point 2) was 22% and the inhibition at 1 µM ([3]; read-out: % Inhibition mean) was 21%. For the same compound, the inhibition at 1 µM ([4]; read-out: % Inhibition Point 1) was 30%, the inhibition at 1 µM ([4]; read-out: % Inhibition Point 2) was 29% and the inhibition at 1 µM ([4]; read-out: % Inhibition mean) was 30%. For the same compound, the inhibition at 1 µM ([5]; read-out: % Inhibition Point 1) was -6%, the inhibition at 1 µM ([5]; read-out: % Inhibition Point 2) was -5% and the inhibition at 1 µM ([5]; read-out: % Inhibition mean) was -5.54%. It also gave an inhibition at 1 µM ([6]; read-out: % Inhibition Point 1) of 13%, an inhibition at 1 µM ([6]; read-out: % Inhibition Point 2) of 12% and an inhibition at 1 µM ([6]; read-out: % Inhibition mean) of 13%. It also gave an inhibition at 1 µM ([7]; read-out: % Inhibition Point 1) of 2.85%, an inhibition at 1 µM ([7]; read-out: % Inhibition Point 2) of 5% and an inhibition at 1 µM ([7]; read-out: % Inhibition mean) of 4%. It also gave an inhibition at 1 µM ([8]; read-out: % Inhibition Point 1) of 1%, an inhibition at 1 µM ([8]; read-out: % Inhibition Point 2) of 2% and an inhibition at 1 µM ([8]; read-out: % Inhibition mean) of 1.57%. For the same compound, the inhibition at 1 µM ([9]; read-out: % Inhibition Point 1) was 8%, the inhibition at 1 µM ([9]; read-out: % Inhibition Point 2) was 6% and the inhibition at 1 µM ([9]; read-out: % Inhibition mean) was 7%.
